Active and inactive are the calls of the source. How the calls were made is not given here.
Tested on: CCRIS mutagenicity, Ames/micronucleus/aberration tests
Assay: CCRIS mutagenicity studies

## C=CCc1ccc2c(c1)OCO2
Test System: AMES SALMONELLA TYPHIMURIUM, Strain/Indicator: TA1535, Metabolic Activation: NONE, Method: STANDARD PLATE
  mutagenic call: inactive; negative
Test System: AMES SALMONELLA TYPHIMURIUM, Strain/Indicator: TA1535, Metabolic Activation: PAPS, Method: STANDARD PLATE
  mutagenic call: inactive; negative
Test System: AMES SALMONELLA TYPHIMURIUM, Strain/Indicator: TA1535, Metabolic Activation: RAT LIVER S-9, AROCLOR 1254 (10%), Method: PREINCUBATION
  mutagenic call: inactive; negative
Test System: AMES SALMONELLA TYPHIMURIUM, Strain/Indicator: TA1535, Metabolic Activation: RAT LIVER S-9, AROCLOR 1254 (30%), Method: PREINCUBATION
  mutagenic call: inactive; negative
Test System: AMES SALMONELLA TYPHIMURIUM, Strain/Indicator: TA1535, Metabolic Activation: RAT, LIVER, S-9, AROCLOR 1254, PAPS, Method: STANDARD PLATE
  mutagenic call: active; positive
Test System: AMES SALMONELLA TYPHIMURIUM, Strain/Indicator: TA1535, Metabolic Activation: RAT, LIVER, S-9, AROCLOR 1254, Method: STANDARD PLATE
  mutagenic call: inactive; negative
Test System: AMES SALMONELLA TYPHIMURIUM, Strain/Indicator: TA1537, Metabolic Activation: NONE, Method: STANDARD PLATE
  mutagenic call: inactive; negative
Test System: AMES SALMONELLA TYPHIMURIUM, Strain/Indicator: TA1537, Metabolic Activation: RAT, LIVER, S-9, AROCLOR 1254, Method: STANDARD PLATE
  mutagenic call: inactive; negative
Test System: AMES SALMONELLA TYPHIMURIUM, Strain/Indicator: TA1538, Metabolic Activation: NONE, Method: STANDARD PLATE
  mutagenic call: inactive; negative
Test System: AMES SALMONELLA TYPHIMURIUM, Strain/Indicator: TA1538, Metabolic Activation: RAT, LIVER, S-9, AROCLOR 1254, Method: STANDARD PLATE
  mutagenic call: inactive; negative
Test System: AMES SALMONELLA TYPHIMURIUM, Strain/Indicator: TA2638, Metabolic Activation: RAT LIVER S-9, PHENOBARBITAL AND 5,6-BENZOFLAVONE, Method: STANDARD PLATE
  mutagenic call: inactive; negative
Test System: CHINESE HAMSTER OVARY, Strain/Indicator: CHO/6-THIOGUANINE, Metabolic Activation: HAMSTER EMBRYO CELL-MEDIATED
  mutagenic call: inactive; negative
Test System: CHINESE HAMSTER OVARY, Strain/Indicator: CHO/6-THIOGUANINE, Metabolic Activation: NONE
  mutagenic call: inactive; negative
Test System: CHINESE HAMSTER OVARY, Strain/Indicator: CHO/OUABAIN, Metabolic Activation: HAMSTER EMBRYO CELL-MEDIATED
  mutagenic call: inactive; negative
Test System: CHINESE HAMSTER OVARY, Strain/Indicator: CHO/OUABAIN, Metabolic Activation: NONE
  mutagenic call: inactive; negative
Test System: CHINESE HAMSTER V-79, Strain/Indicator: V-79 (HGPRT)/6-THIOGUANINE, Metabolic Activation: NONE
  mutagenic call: inactive; negative
Test System: CHINESE HAMSTER V-79, Strain/Indicator: V-79 (HGPRT)/6-THIOGUANINE, Metabolic Activation: RAT, LIVER, S-9, PHENOBARBITAL AND BETA-NAPHTHOFLAVONE
  mutagenic call: inactive; negative
Test System: CHINESE HAMSTER V-79, Strain/Indicator: V-79/6-THIOGUANINE, Metabolic Activation: NONE, Method: REPLATING
  mutagenic call: active; positive
Test System: CHINESE HAMSTER V-79, Strain/Indicator: V-79/OUABAIN, Metabolic Activation: HAMSTER EMBRYO CELL-MEDIATED
  mutagenic call: inactive; negative
Test System: CHINESE HAMSTER V-79, Strain/Indicator: V-79/OUABAIN, Metabolic Activation: NONE
  mutagenic call: inactive; negative
Test System: CHINESE HAMSTER V-79, Strain/Indicator: V-79/OUABAIN, Metabolic Activation: RAT, LIVER, S-15, PHENOBARBITAL AND 5,6-BENZOFLAVONE
  mutagenic call: inactive; negative
Test System: E. COLI, Strain/Indicator: WP2 (PKM101), Metabolic Activation: RAT LIVER S-9, PHENOBARBITAL AND 5,6-BENZOFLAVONE, Method: STANDARD PLATE
  mutagenic call: inactive; negative
Test System: E. COLI, Strain/Indicator: WP2 UVRA (PKM101), Metabolic Activation: RAT LIVER S-9, PHENOBARBITAL AND 5,6-BENZOFLAVONE, Method: STANDARD PLATE
  mutagenic call: inactive; negative
Test System: MOUSE LYMPHOMA, Strain/Indicator: L5178Y (TK+/+)/OUABAIN, Metabolic Activation: NONE, Method: SUSPENSION/PLATE
  mutagenic call: active; positive
Test System: MOUSE LYMPHOMA, Strain/Indicator: L5178Y (TK+/+)/OUABAIN, Metabolic Activation: RAT LIVER S-9, AROCLOR 1254, Method: SUSPENSION/PLATE
  mutagenic call: active; positive
Test System: MOUSE LYMPHOMA, Strain/Indicator: L5178Y (TK+/-)/TRIFLUROTHYMIDINE, Metabolic Activation: NONE, Method: SUSPENSION/PLATE
  mutagenic call: active; positive
Test System: MOUSE LYMPHOMA, Strain/Indicator: L5178Y (TK+/-)/TRIFLUROTHYMIDINE, Metabolic Activation: RAT LIVER S-9, AROCLOR 1254, Method: SUSPENSION/PLATE
  mutagenic call: inactive; negative
Test System: MOUSE LYMPHOMA, Strain/Indicator: L5178Y (TK+/TK-), Metabolic Activation: NONE, Method: SUSPENSION/PLATE
  mutagenic call: inactive; negative
Test System: MOUSE LYMPHOMA, Strain/Indicator: L5178Y (TK+/TK-), Metabolic Activation: RAT, LIVER, S-9, Method: SUSPENSION/PLATE
  mutagenic call: active; positive
Test System: UDS RAT HEPATOCYTES, Strain/Indicator: THY INCORP, Metabolic Activation: NONE, Method: LIQUID SCINTILLATION COUNTING
  mutagenic call: active; positive

Reference: PubChem BioAssay AID1259407 (Chemical Carcinogenesis Research Information System (CCRIS), 2018)
